Source: US20240261272A1, “LPA1 ANTAGONISTS FOR TREATING INTERSTITIAL LUNG DISEASE” (Bristol-Myers Squibb Company, priority 2022, published 2024)

Legend:
[1] = Phase 1 Part B multiple ascending dose (MAD) study in healthy participants: safety, blood pressure; format: in vivo, human; parameters: Mean DBP: unit not given here
Protocol: The study was performed in 3 parts in 112 healthy male and female participants, including 24 Japanese participants. Female participants were to be not of childbearing potential. The present study was designed to evaluate the safety and tolerability, PK, and exploratory PD of an oral suspension of Compound A. Parts A and B (Cohort B1 only) enrolled healthy participants and was conducted at a site in The Netherlands and Part B (Cohort B2 to B5) enrolled healthy non-Japanese participants and was conducted at a site in the United Kingdom (UK). Part C enrolled healthy Japanese participants and was conducted at the same site in the UK.
Part B was a MAD study in a planned number of 6 sequential dose escalation cohorts (10 mg QD, 30 mg QD, 30 mg BID, 60 mg BID, 125 mg BID, and ≤250 mg BID) of 8 healthy participants (6 active+2 placebo) each, under fasted conditions. However, Cohort B6 (≤250 mg BID) was cancelled because sufficient safety and PK data had been obtained at doses up to 125 mg BID. Eligible participants received study drug (Compound A or placebo) administered orally for 14 days.
Physical examinations, vital sign measurements (including orthostasis testing in Cohort A6, Cohort B3 to B5, and C1 to C3 at selected time points), 12-lead electrocardiogram (ECG), and clinical laboratory evaluations were performed at selected times throughout the study. In addition, Holter monitoring was performed for the first 24 hours post dose on Day 1 in Part A (not in FE/pH cohort), and also for the first 24 hours post dose on Day 1 and Day 14 in Parts B and C. Participants were closely monitored for adverse events (AEs). Blood samples were collected for up to 14 days (follow-up visit) after (last) study drug administration for PK analysis. In addition, blood and urine were collected for exploratory biomarker assessments and for biobanking of samples for potential analyses. Urine was collected for potential PK analysis for up to 96 hours after a single dose of Compound A or placebo was administered in the SAD part, and for up to 24 hours after the first (morning) dose of study drug on Day 1 and for up to 24 hours after the last (morning) dose of study drug on Day 14 in the MAD parts.

participants with PPF = assay: Phase 2 study, PPF cohort: efficacy (rate of FVC decline in % of predicted, FVC); format: in vivo, human; details: for Relative Reduction: table title, dose not given
Protocol: A total of 123 participants with PPF were randomized. Participants (age ≥21 years) were randomized (1:1:1) to receive 30 mg or 60 mg Compound A or PBO twice daily for 26 weeks. […] Immunosuppressive medications (mycophenolate mofetil, mycophenolic acid, azathioprine and/or tacrolimus) were permitted only if dosing is stable for ≥6 months prior to screening. If receiving antifibrotic agents pirfenidone or nintedanib, patients had to receive a stable dosage for ≥3 months prior to screening and during the screening period; if not receiving pirfenidone or nintedanib, patients had to be naive to both drugs or not have received either 4 weeks prior to Day 1. A total of 47 (38.2%) subjects were receiving antifibrotic treatment (with or without immunosuppression therapy). Of those subjects, 34 were being treated with nintedanib and 13 with pirfenidone. Participants were stratified by usual interstitial pneumonia (UIP) pattern (presence versus absence) and background therapy (antifibrotics +/−ILD-targeted immunosuppression versus ILD-targeted immunosuppression alone versus none).UIP pattern was present in 52% of subjects and unclassifiable ILD was he most common disease categorization.
The study was not powered to detect statistical significance (no formal testing). No target effect size was defined in the study design. There were two estimand approaches for analysis: Treatment Policy: Effect of treatment with dose reduction as part of treatment regimen.
While-On Treatment: Effect of treatment without dose reduction.
The main efficacy endpoint, rate of FVC decline (in % of predicted) from baseline to wk-26 in the PPF cohort, was estimated using a linear mixed-effects model utilizing all FVC timepoints. It was analyzed under a primary estimand (utilizing all data, treatment policy strategy), and under supplementary estimand (utilizing all data up to the point of dose reduction, while-on-treatment strategy). Analysis was performed in the overall population as well as in sub-groups by 1) background anti-fibrotic treatment or not 2) UIP radiographic pattern (presence or not). The mean baseline ppFVC was 66.700 for the PPF cohort.

CCCN(C)C(=O)OCc1c(-c2ccc(O[C@H]3CCC[C@H](C(=O)O)C3)c(C)n2)nnn1C [Compound A, (1S,3S)-3-((2-methyl-6-(1-methyl-5-(((methyl(propyl)carbamoyl)-oxy)methyl)-1H-1,2,3-triazol-4-yl)pyridin-3-yl)oxy)cyclohexane-1-carboxylic acid]
Mean DBP ([1]; MAD 10 mg QD, D 1 2 h): 70.2
Mean DBP ([1]; MAD 10 mg QD, D 1 4 h): 65.8
Mean DBP ([1]; MAD 10 mg QD, D 1 8 h): 68.7
Mean DBP ([1]; MAD 10 mg QD, D 2 24 h): 65.3
Mean DBP ([1]; MAD 10 mg QD, D 14 312 h): 69.3
Mean DBP ([1]; MAD 10 mg QD, D 14 314 h): 67.5
Mean DBP ([1]; MAD 10 mg QD, D 14 317 h): 64.3
Mean DBP ([1]; MAD 10 mg QD, D 14 320 h): 67.5
Mean DBP ([1]; MAD 10 mg QD, D 15 336 h): 66.8
Mean DBP ([1]; MAD 30 mg BID, D 1 2 h): 63.3
Mean DBP ([1]; MAD 30 mg BID, D 1 4 h): 62.7
Mean DBP ([1]; MAD 30 mg BID, D 1 8 h): 63.2
Mean DBP ([1]; MAD 30 mg BID, D 2 24 h): 66.7
Mean DBP ([1]; MAD 30 mg BID, D 14 312 h): 68.7
Mean DBP ([1]; MAD 30 mg BID, D 14 314 h): 63.8
Mean DBP ([1]; MAD 30 mg BID, D 14 317 h): 61.0
Mean DBP ([1]; MAD 30 mg BID, D 14 320 h): 617
Mean DBP ([1]; MAD 30 mg BID, D 15 336 h): 65.3
Mean DBP ([1]; MAD 30 mg QD, D 1 2 h): 66.5
Mean DBP ([1]; MAD 30 mg QD, D 1 4 h): 67.8
Mean DBP ([1]; MAD 30 mg QD, D 1 8 h): 66.0
Mean DBP ([1]; MAD 30 mg QD, D 2 24 h): 67.3
Mean DBP ([1]; MAD 30 mg QD, D 14 312 h): 63.3
Mean DBP ([1]; MAD 30 mg QD, D 14 314 h): 63.5
Mean DBP ([1]; MAD 30 mg QD, D 14 317 h): 61.8
Mean DBP ([1]; MAD 30 mg QD, D 14 320 h): 63.2
Mean DBP ([1]; MAD 30 mg QD, D 15 336 h): 62.3
Mean DBP ([1]; MAD 60 mg BID, D 1 2 h): 64.5
Mean DBP ([1]; MAD 60 mg BID, D 1 4 h): 66.0
Mean DBP ([1]; MAD 60 mg BID, D 1 8 h): 64.7
Mean DBP ([1]; MAD 60 mg BID, D 2 24 h): 65.7
Mean DBP ([1]; MAD 60 mg BID, D 14 312 h): 64.8
Mean DBP ([1]; MAD 60 mg BID, D 14 314 h): 64.0
Mean DBP ([1]; MAD 60 mg BID, D 14 317 h): 62.5
Mean DBP ([1]; MAD 60 mg BID, D 14 320 h): 63.0
Mean DBP ([1]; MAD 60 mg BID, D 15 336 h): 64.5
Mean DBP ([1]; MAD 125 mg BID, D 1 2 h): 62.3
Mean DBP ([1]; MAD 125 mg BID, D 1 4 h): 64.7
Mean DBP ([1]; MAD 125 mg BID, D 1 8 h): 64.7
Mean DBP ([1]; MAD 125 mg BID, D 2 24 h): 66.3
Mean DBP ([1]; MAD 125 mg BID, D 14 312 h): 62.0
Mean DBP ([1]; MAD 125 mg BID, D 14 314 h): 65.0
Mean DBP ([1]; MAD 125 mg BID, D 14 317 h): 59.2
Mean DBP ([1]; MAD 125 mg BID, D 14 320 h): 61.8
Mean DBP ([1]; MAD 125 mg BID, D 15 336 h): 63.0
BP reductions versus placebo (in words) ([1]; MAD BID groups): no clear differences between placebo and the Compound A groups
dose response (in words) (participants with PPF; PPF cohort, 30 mg and 60 mg): Clear dose response
mean observed change from baseline in ppFVC percentage and FVC versus placebo (in words) (participants with PPF; PPF cohort, 30 mg and 60 mg, FIGS. 10 and 11): show improvement over placebo at week 8
consistency of efficacy across sub-groups (in words) (participants with PPF; PPF cohort, irrespective of background antifibrotics or of UIP pattern): Efficacy consistent in all sub-groups
FVC (% Predicted) Rate of Decline, Difference (participants with PPF; PPF, 30 mg - placebo, UIP Present, Primary Estimand): 0.88 % Predicted
FVC (% Predicted) Rate of Decline, Slope (participants with PPF; PPF, 30 mg, Not Receiving Antifibrotic Treatment, Supplementary Estimand): −2.83 % Predicted
FVC (% Predicted) Rate of Decline, Slope (participants with PPF; PPF, 30 mg, Overall Population, Primary Estimand - Treatment Policy): −2.7 % Predicted
FVC (% Predicted) Rate of Decline, Slope (participants with PPF; PPF, 30 mg, Receiving Antifibrotic Treatment, Supplementary Estimand): −1.8 % Predicted
FVC (% Predicted) Rate of Decline, Slope (participants with PPF; PPF, 30 mg, UIP Absent, Supplementary Estimand): −2.24 % Predicted
FVC (% Predicted) Rate of Decline, Slope (participants with PPF; PPF, 30 mg, UIP Present, Primary Estimand): −3.07 % Predicted
FVC (% Predicted) Rate of Decline, Difference (participants with PPF; PPF, 60 mg - placebo, UIP Absent, Supplementary Estimand): 3.8 % Predicted
FVC (% Predicted) Rate of Decline, Slope (participants with PPF; PPF, 60 mg, Not Receiving Antifibrotic Treatment, Supplementary Estimand): −1.56 % Predicted
FVC (% Predicted) Rate of Decline, Slope (participants with PPF; PPF, 60 mg, Overall Population, Supplementary Estimand - While On Treatment): −1.3 % Predicted
FVC (% Predicted) Rate of Decline, Slope (participants with PPF; PPF, 60 mg, Receiving Antifibrotic Treatment, Supplementary Estimand): −1.1 % Predicted
FVC (% Predicted) Rate of Decline, Slope (participants with PPF; PPF, 60 mg, UIP Absent, Supplementary Estimand): −0.7 % Predicted
FVC (% Predicted) Rate of Decline, Slope (participants with PPF; PPF, 60 mg, UIP Present, Primary Estimand): −1.46 % Predicted
Treatment difference 60 mg v placebo, rate of decline in ppFVC baseline to Week 26 (participants with PPF; PPF, Non UIP subgroup): 3.80
Relative Reduction (participants with PPF; PPF, Not Receiving Antifibrotic Treatment, Primary Estimand): Estimand - Treatment Policy (Relative Reduction = 68.5%)
Relative Reduction (participants with PPF; PPF, Not Receiving Antifibrotic Treatment, Supplementary Estimand): Estimand - While on Treatment (Relative Reduction = 62.6%)
Relative Reduction (participants with PPF; PPF, Receiving Antifibrotic Treatment, Primary Estimand): Estimand - Treatment Policy (Relative Reduction = 85%)
Relative Reduction (participants with PPF; PPF, Receiving Antifibrotic Treatment, Supplementary Estimand): Estimand - While on Treatment (Relative Reduction = 74.9%)
Relative Reduction (participants with PPF; PPF, UIP Absent, Primary Estimand): Policy Strategy (Relative Reduction = 83.6%)
Relative Reduction (participants with PPF; PPF, UIP Absent, Supplementary Estimand): While on Treatment (Relative Reduction = 84.4%)
Relative Reduction (participants with PPF; PPF, UIP Present, Primary Estimand): Policy Strategy (Relative Reduction = 63%)
Relative Reduction (participants with PPF; PPF, UIP Present, Supplementary Estimand): While on Treatment (Relative Reduction = 54%)
